Key:
[1] = tested on: K562 cells; test: K562 Cell Growth Inhibition Assay; format: cell-based; details: K562 human myelogenous leukemia cells, 72 h
Protocol: K562 cells, a human myelogenous leukemia cell line, were seeded into a 24 wells tissue culture plate (Falcon 3047) (10000/well) in the presence of increasing concentrations of the compounds. After 72 h, cells were harvested and were counted using a cell counter (Coulter Counter--ZM). The percent of inhibition was evaluated in respect to the untreated control cells.

[2] = target: p45 v-abl tyrosine kinase; test: p45 v-abl Kinase Assay ((Val^5)-Angiotensin II phosphorylation); format: biochemical, Abelson murine leukemia virus; details: (Val^5)-Angiotensin II 2 mM, ATP 50 μM, pH 8.0, 30° C., read-out: Inhibition of p45 v-abl kinase IC50
Protocol: The enzyme used in our test was the p45 v-abl tyrosine kinase which represents the catalytic domain of the Abelson tyrosine kinase (isolated from the Abelson murine leukemia virus). The p45 v-abl kinase was produced and isolated as described by Wang et al. in J. Biol. Chem. 260, 64 (1985) and by Ferguson et al. in J. Biol. Chem. 260, 3652 (1985) and in Biochem. J. 257, 321 (1989).
(Val^5)-Angiotensin II phosphorylation was performed by incubation with 40 ng of purified abl-kinase and (γ^32 P)-ATP, in 50 μl of buffer containing Tris-HCl 25 mM, pH 8.0, MgCl2 10 mM and dithiothreitol 0.1 mM (kinase buffer). The reaction mixture was incubated for the indicated time at 30° C. and the reaction stopped by adding 50 μl of 5% trichloroacetic acid. After a brief incubation on ice, tubes were centrifuged. The supernatants were spotted on phosphocellulose paper squares (Whatman P-81) and washed extensively in acetic acid. The radioactivity bound to dried phosphocellulose squares was measured in a liquid scintillation counter. IC50 values were calculated from triplicate determinations of each experimental point. Each inhibitor was tested at concentrations ranging from […] in the presence of fixed concentrations of peptide (2 mM) and ATP (50 μM).

`N#CC(=Cc1ccc(O)c2ncccc12)C(=O)Nc1ccccc1` [N-phenyl β-(8-hydroxy-5-quinolyl)-α-cyanoacrylamide] showed an IC50 [1] of 0.66 µM and an IC50 [2] of 3.4 µM.
